Measured values from patent US5445944A, “Methods for determining peroxidately active substances” (Syntex (U.S.A.) Inc., priority 1994, dated 1995).

Columns and labels:
[1] = Trapping of / reaction with oxidized dicarboxidine in solution
HRP [2] = biological target: T1, HRP (Armoracia rusticana, UniProt P00433); test: Release of fluorophore, pH jump method (HRP/H2O2 cleavage at pH 5.0, fluorescence read at pH 8.0); assay type: biochemical, horseradish; conditions: pH jump: reaction in citrate buffer pH 5.0 with H2O2 and 0.1 mL HRP (10 ng/mL); aliquot read in phosphate buffer pH 8.0; experiment repeated (two lines)
T1 sequence (P00433 31-338 limits assumed): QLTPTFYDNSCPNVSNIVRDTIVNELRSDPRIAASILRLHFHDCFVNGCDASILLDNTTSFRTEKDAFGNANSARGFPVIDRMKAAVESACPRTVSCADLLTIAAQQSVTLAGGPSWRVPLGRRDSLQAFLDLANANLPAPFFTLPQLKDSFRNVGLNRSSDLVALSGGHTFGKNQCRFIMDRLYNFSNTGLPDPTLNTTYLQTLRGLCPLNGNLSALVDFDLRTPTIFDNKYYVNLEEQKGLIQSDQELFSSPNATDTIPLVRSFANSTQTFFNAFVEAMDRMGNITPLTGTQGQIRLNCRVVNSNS
Protocol: 0.01 mL of dicarboxidine 11 (or XV), 0.1 mL of 49 and 0.04 mL of H2 O2 were added to 0.75 mL (0.76 mL) citrate buffer (pH 5.0, 0.1M); 0.1 mL of HRP (10 ng/mL) was added to start the reaction. 0.05 mL of this solution was taken every three minutes and added to 0.95 mL of phosphate buffer (pH 8.0, 1.0M) and spectra recorded. This experiment was repeated.
Results: Fluorescence after 3 minutes--background fluorescence.

HRP [3] = biological target: T1, HRP; test: Release of fluorophore at pH 7.0 (HRP/H2O2); assay type: biochemical, horseradish; conditions: phosphate buffer 0.1M pH 7.0, H2O2, 0.1 mL HRP (100 ng/mL); experiment repeated (two lines)
Protocol: 0.01 mL of dicarboxidine 11 (or XV), 0.1 mL of 49 and 0.04 mL of H2 O2 were added to 0.75 mL (0.76 mL) of phosphate buffer (0.1M, pH 7.0). 0.1 mL of HRP (100 ng/mL) was added to start the reaction and the spectra recorded. This experiment was repeated.

[4] = Suitability of benzidines as hydrogen donor in the peroxidase cleavage reaction

COc1ccc(OC)cc1 [Para-methoxy anisole]
Effect on / reaction with oxidized dicarboxidine [1]: has no effect on oxidized dicarboxidine

O=C(NCCS(=O)(=O)O)c1cc2ccc(Oc3ccc(O)cc3)cc2oc1=O [Compound 49]
Fluorescence after 3 minutes--background fluorescence (HRP [2]): 0.50 F.U.
Fluorescence (HRP [3]): 40 F.U.

CN(C)c1ccc(-c2ccc(N(C)C)cc2)cc1 [N,N,N',N'-tetramethylbenzidine]
Function as benzidine hydrogen donor [4]: do not react at a rate acceptable for assays

Nc1ccc(-c2ccc(N)cc2)cc1 [benzidine]
Function as benzidine hydrogen donor [4]: function in the present invention

COc1ccccc1OC [ortho-methoxy anisole]
Effect on / reaction with oxidized dicarboxidine [1]: has no effect on oxidized dicarboxidine

COc1ccc(O)cc1C(=O)O [2-methoxy-5-hydroxybenzoic acid]
Effect on / reaction with oxidized dicarboxidine [1]: react with oxidized dicarboxidine

COc1ccc(O)c(C(=O)O)c1 [2-hydroxy-5-methoxy benzoic acid]
Effect on / reaction with oxidized dicarboxidine [1]: has no effect on oxidized dicarboxidine

Cc1cc(-c2cc(C)c(N)c(C)c2)cc(C)c1N [3,3',5,5'-tetramethylbenzidine]
Function as benzidine hydrogen donor [4]: do not react at a rate acceptable for assays

Cc1cc(-c2ccc(N)c(C)c2)ccc1N [3,3'-dimethylbenzidine]
Function as benzidine hydrogen donor [4]: function in the present invention

O=C(O)c1cc(O)ccc1O [Gentisic acid, gentisic acid]
Effect on / reaction with oxidized dicarboxidine [1]: react with oxidized dicarboxidine
